Assay results as given in patent publication US20220281848A1, “PYRAZOLE-SUBSTITUTED PYRROLIDINONES AS HERBICIDES” (FMC Corporation, priority 2019, published 2022).

Tests used:
Format in all cases: in vivo
Conditions in all cases: after 13 d
[1] = tested on: barnyardgrass (Echinochloa crus-galli, ECHCG); test: Test A pre-emergence, barnyardgrass
Protocol: (§1) Seeds of corn (Zea mays, ZEAMX), giant foxtail (Setaria faberi, SETFA), barnyardgrass (Echinochloa crus-galli, ECHCG), ivy-leaved morning glory (Ipomoea hederacea, IPOHE), redroot pigweed (Amaranthus retroflexus, AMARE) and velvetleaf (Abutilon theophrasti, ABUTH) were sown in standard soil in pots. After cultivation for one day under controlled conditions in a glasshouse (at 24/16° C., day/night; 14 h light; 65% humidity), the plants were sprayed with an aqueous spray solution derived from the formulation of the technical active ingredient in acetone/water (50:50) solution containing 0.5% Tween 20 (polyoxyethylene sorbitan monolaurate, CAS RN 9005-64-5) to give a final dose of 15.625, 62.5 or 250 g/ha of test compound.
(§2) The test plants were then grown under controlled conditions in a glasshouse (at 24/16° C., day/night; 14 h light; 65% humidity) and watered twice daily. After 13 d the test was evaluated (100=total damage to plant; 0=no damage to plant).

[2] = tested on: ivy-leaved morning glory (Ipomoea hederacea, IPOHE); test: Test A post-emergence, ivy-leaved morning glory
Protocol: as §1, with “IPOHE)),” for “IPOHE),”, “8 d” for “one day”
(§3) The test plants were then grown on under controlled conditions in a glasshouse (at 24/16° C., day/night; 14 h light; 65% humidity) and watered twice daily. After 13 d the test was evaluated (100=total damage to plant; 0=no damage to plant).

[3] = tested on: velvetleaf (Abutilon theophrasti, ABUTH); test: Test A post-emergence, velvetleaf
Protocol: as §1, with “IPOHE)),” for “IPOHE),”, “8 d” for “one day”
as §3

[4] = tested on: giant foxtail (Setaria faberi, SETFA); test: Test A post-emergence, giant foxtail
Protocol: as §1, with “IPOHE)),” for “IPOHE),”, “8 d” for “one day”
as §3

[5] = tested on: velvetleaf (Abutilon theophrasti, ABUTH); test: Test A pre-emergence, velvetleaf
Protocol: as §1, §2

corn (Zea mays, ZEAMX) [6] = test: Test A post-emergence, corn
Protocol: as §1, with “IPOHE)),” for “IPOHE),”, “8 d” for “one day”
as §3

[7] = tested on: ivy-leaved morning glory (Ipomoea hederacea, IPOHE); test: Test A pre-emergence, ivy-leaved morning glory
Protocol: as §1, §2

[8] = tested on: barnyardgrass (Echinochloa crus-galli, ECHCG); test: Test A post-emergence, barnyardgrass
Protocol: as §1, with “IPOHE)),” for “IPOHE),”, “8 d” for “one day”
as §3

[9] = tested on: redroot pigweed (Amaranthus retroflexus, AMARE); test: Test A pre-emergence, redroot pigweed
Protocol: as §1, §2

[10] = tested on: giant foxtail (Setaria faberi, SETFA); test: Test A pre-emergence, giant foxtail
Protocol: as §1, §2

[11] = tested on: redroot pigweed (Amaranthus retroflexus, AMARE); test: Test A post-emergence, redroot pigweed
Protocol: as §1, with “IPOHE)),” for “IPOHE),”, “8 d” for “one day”
as §3

corn (Zea mays, ZEAMX) [12] = test: Test A pre-emergence, corn
Protocol: as §1, §2

| SMILES | damage to plant (100=total damage; 0=no damage) ECHCG ([1]; Pre-Emergence at 15.625 g/ha) | damage to plant (100=total damage; 0=no damage) ECHCG ([1]; Pre-Emergence at 62.5 g/ha) | damage to plant (100=total damage; 0=no damage) ECHCG ([1]; Pre-Emergence at 250 g/ha) | damage to plant (100=total damage; 0=no damage) IPOHE ([2]; Post-Emergence at 15.625 g/ha) | damage to plant (100=total damage; 0=no damage) IPOHE ([2]; Post-Emergence at 62.5 g/ha) | damage to plant (100=total damage; 0=no damage) IPOHE ([2]; Post-Emergence at 250 g/ha) | damage to plant (100=total damage; 0=no damage) ABUTH ([3]; Post-Emergence at 15.625 g/ha) | damage to plant (100=total damage; 0=no damage) ABUTH ([3]; Post-Emergence at 62.5 g/ha) | damage to plant (100=total damage; 0=no damage) ABUTH ([3]; Post-Emergence at 250 g/ha) | damage to plant (100=total damage; 0=no damage) SETFA ([4]; Post-Emergence at 15.625 g/ha) | damage to plant (100=total damage; 0=no damage) SETFA ([4]; Post-Emergence at 62.5 g/ha) | damage to plant (100=total damage; 0=no damage) SETFA ([4]; Post-Emergence at 250 g/ha) | damage to plant (100=total damage; 0=no damage) ABUTH ([5]; Pre-Emergence at 15.625 g/ha) | damage to plant (100=total damage; 0=no damage) ABUTH ([5]; Pre-Emergence at 62.5 g/ha) | damage to plant (100=total damage; 0=no damage) ABUTH ([5]; Pre-Emergence at 250 g/ha) | damage to plant (100=total damage; 0=no damage) ZEAMX (corn (Zea mays, ZEAMX) [6]; Post-Emergence at 15.625 g/ha) | damage to plant (100=total damage; 0=no damage) ZEAMX (corn (Zea mays, ZEAMX) [6]; Post-Emergence at 62.5 g/ha) | damage to plant (100=total damage; 0=no damage) ZEAMX (corn (Zea mays, ZEAMX) [6]; Post-Emergence at 250 g/ha) | damage to plant (100=total damage; 0=no damage) IPOHE ([7]; Pre-Emergence at 15.625 g/ha) | damage to plant (100=total damage; 0=no damage) IPOHE ([7]; Pre-Emergence at 62.5 g/ha) | further results |
| --- | --- | --- | --- | --- | --- | --- | --- | --- | --- | --- | --- | --- | --- | --- | --- | --- | --- | --- | --- | --- | --- |
| CN1CC(c2cc(Cl)n(C)n2)C(C(=O)Nc2cccc(F)c2F)C1=O (racemic) [Compound 27] | 70 | 90 | 90 | 10 | 10 | 20 | 0 | 0 | 0 | 10 | 50 | 70 | 0 | 0 | 0 | 0 | 0 | 10 | 0 | 0 | damage to plant (100=total damage; 0=no damage) IPOHE ([7]; Pre-Emergence at 250 g/ha): 10; damage to plant (100=total damage; 0=no damage) ECHCG ([8]; Post-Emergence at 15.625 g/ha): 20; damage to plant (100=total damage; 0=no damage) ECHCG ([8]; Post-Emergence at 62.5 g/ha): 50; damage to plant (100=total damage; 0=no damage) ECHCG ([8]; Post-Emergence at 250 g/ha): 70; damage to plant (100=total damage; 0=no damage) AMARE ([9]; Pre-Emergence at 15.625 g/ha): 0; damage to plant (100=total damage; 0=no damage) AMARE ([9]; Pre-Emergence at 62.5 g/ha): 0; damage to plant (100=total damage; 0=no damage) AMARE ([9]; Pre-Emergence at 250 g/ha): 0; damage to plant (100=total damage; 0=no damage) SETFA ([10]; Pre-Emergence at 15.625 g/ha): 60; damage to plant (100=total damage; 0=no damage) SETFA ([10]; Pre-Emergence at 62.5 g/ha): 80; damage to plant (100=total damage; 0=no damage) SETFA ([10]; Pre-Emergence at 250 g/ha): 90; damage to plant (100=total damage; 0=no damage) AMARE ([11]; Post-Emergence at 15.625 g/ha): 30; damage to plant (100=total damage; 0=no damage) AMARE ([11]; Post-Emergence at 62.5 g/ha): 40; damage to plant (100=total damage; 0=no damage) AMARE ([11]; Post-Emergence at 250 g/ha): 30; damage to plant (100=total damage; 0=no damage) ZEAMX (corn (Zea mays, ZEAMX) [12]; Pre-Emergence at 15.625 g/ha): 0; damage to plant (100=total damage; 0=no damage) ZEAMX (corn (Zea mays, ZEAMX) [12]; Pre-Emergence at 62.5 g/ha): 10; damage to plant (100=total damage; 0=no damage) ZEAMX (corn (Zea mays, ZEAMX) [12]; Pre-Emergence at 250 g/ha): 10 |
| CN1CC(c2nn(C)c(Cl)c2Br)C(C(=O)Nc2ccc(F)cc2F)C1=O (racemic) [Compound 30] | 0 | 10 | 20 | 0 | 0 | 0 | 0 | 0 | 0 | 10 | 20 | 50 | 0 | 0 | 0 | 0 | 0 | 0 | 0 | 0 | damage to plant (100=total damage; 0=no damage) IPOHE ([7]; Pre-Emergence at 250 g/ha): 10; damage to plant (100=total damage; 0=no damage) ECHCG ([8]; Post-Emergence at 15.625 g/ha): 0; damage to plant (100=total damage; 0=no damage) ECHCG ([8]; Post-Emergence at 62.5 g/ha): 20; damage to plant (100=total damage; 0=no damage) ECHCG ([8]; Post-Emergence at 250 g/ha): 50; damage to plant (100=total damage; 0=no damage) AMARE ([9]; Pre-Emergence at 15.625 g/ha): 0; damage to plant (100=total damage; 0=no damage) AMARE ([9]; Pre-Emergence at 62.5 g/ha): 0; damage to plant (100=total damage; 0=no damage) AMARE ([9]; Pre-Emergence at 250 g/ha): 10; damage to plant (100=total damage; 0=no damage) SETFA ([10]; Pre-Emergence at 15.625 g/ha): 0; damage to plant (100=total damage; 0=no damage) SETFA ([10]; Pre-Emergence at 62.5 g/ha): 0; damage to plant (100=total damage; 0=no damage) SETFA ([10]; Pre-Emergence at 250 g/ha): 10; damage to plant (100=total damage; 0=no damage) AMARE ([11]; Post-Emergence at 15.625 g/ha): 0; damage to plant (100=total damage; 0=no damage) AMARE ([11]; Post-Emergence at 62.5 g/ha): 0; damage to plant (100=total damage; 0=no damage) AMARE ([11]; Post-Emergence at 250 g/ha): 10; damage to plant (100=total damage; 0=no damage) ZEAMX (corn (Zea mays, ZEAMX) [12]; Pre-Emergence at 15.625 g/ha): 0; damage to plant (100=total damage; 0=no damage) ZEAMX (corn (Zea mays, ZEAMX) [12]; Pre-Emergence at 62.5 g/ha): 0; damage to plant (100=total damage; 0=no damage) ZEAMX (corn (Zea mays, ZEAMX) [12]; Pre-Emergence at 250 g/ha): 0 |
